T/C data for 28 compounds are collected here from PubChem BioAssay AID248 (DTP/NCI, 2004).

This experiment has as its system L1210 leukemia ip in BDF1 mice, survival T/C. The experiment is described as follows: NCI In Vivo Anticancer Drug Screen. Data for tumor model L1210 Leukemia (intraperitoneal) in B6D2F1 (BDF1) mice. Particulars: endpoint: mean survival time, higher = longer survival. An outline of the steps: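 Antitumor effect is assessed in tumor-bearing animals. Survival in the compound arm is compared with a vehicle-dosed control arm and expressed as their quotient.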

The mark [1] stands for this setting: dose: 100.0 mg/kg/injection, schedule: Q01DX001 (ip), vehicle: saline.
The mark [2] stands for this setting: dose: 100.0 mg/kg/injection, schedule: Q04DX003 (ip), vehicle: Klucel (hydroxypropylcellulose) (HPC).
[3] abbreviates: dose: 50.0 mg/kg/injection, schedule: Q01DX001 (ip), vehicle: carboxymethylcellulose (CMC).
Where [4] appears, read: dose: 100.0 mg/kg/injection, schedule: Q01DX001 (ip), vehicle: carboxymethylcellulose (CMC).
The mark [5] stands for this setting: dose: 200.0 mg/kg/injection, schedule: Q01DX001 (ip), vehicle: carboxymethylcellulose (CMC).
Where [6] appears, read: dose: 400.0 mg/kg/injection, schedule: Q01DX001 (ip), vehicle: carboxymethylcellulose (CMC).
Where [7] appears, read: dose: 75.0 mg/kg/injection, schedule: Q01DX001 (ip), vehicle: saline.
The mark [8] stands for this setting: dose: 100.0 mg/kg/injection, schedule: Q04DX003 (ip), vehicle: saline with Tween-80.
The mark [9] stands for this setting: dose: 200.0 mg/kg/injection, schedule: Q04DX003 (ip), vehicle: saline with Tween-80.
Where [10] appears, read: dose: 400.0 mg/kg/injection, schedule: Q04DX003 (ip), vehicle: saline with Tween-80.
Setting [11] is: dose: 200.0 mg/kg/injection, schedule: Q01DX001 (ip), vehicle: saline.
Where [12] appears, read: dose: 400.0 mg/kg/injection, schedule: Q01DX001 (ip), vehicle: saline.
[13] abbreviates: dose: 100.0 mg/kg/injection, schedule: Q01DX005 (ip), vehicle: saline.
The mark [14] stands for this setting: dose: 100.0 mg/kg/injection, schedule: Q01DX009 (ip), vehicle: saline with Tween-80.
Where [15] appears, read: dose: 200.0 mg/kg/injection, schedule: Q01DX009 (ip), vehicle: saline with Tween-80.
Setting [16] is: dose: 100.0 mg/kg/injection, schedule: Q01DX009 (ip), vehicle: Klucel (hydroxypropylcellulose) (HPC).
The mark [17] stands for this setting: dose: 200.0 mg/kg/injection, schedule: Q01DX009 (ip), vehicle: Klucel (hydroxypropylcellulose) (HPC).
The mark [18] stands for this setting: dose: 400.0 mg/kg/injection, schedule: Q01DX009 (ip), vehicle: Klucel (hydroxypropylcellulose) (HPC).
The mark [19] stands for this setting: dose: 100.0 mg/kg/injection, schedule: Q01DX001 (ip), vehicle: saline with Tween-80.
[20] abbreviates: dose: 200.0 mg/kg/injection, schedule: Q01DX001 (ip), vehicle: saline with Tween-80.
Where [21] appears, read: dose: 400.0 mg/kg/injection, schedule: Q01DX001 (ip), vehicle: saline with Tween-80.

Where “and” joins values, the source holds several entries; their conditions need not be identical. Identical values can stand only once. Toxic doses and inconclusive results are not listed.

For the compound `Cc1cc(C)c(S(=O)(=O)O)c(Cc2ccc3ccccc3c2)c1`, the T/C under setting [1] was 94 % of control.

With `Oc1ccccc1C1SCSCS1`, the T/C by setting is: under setting [2], 97 % of control; (dose: 200.0 mg/kg/injection, schedule: Q04DX003 (ip), vehicle: Klucel (hydroxypropylcellulose) (HPC)) 98 % of control; (dose: 400.0 mg/kg/injection, schedule: Q04DX003 (ip), vehicle: Klucel (hydroxypropylcellulose) (HPC)) 103 % of control.

On to `COC(=O)c1[nH]cnc1N`, for which the T/C reads like this: under setting [3], 97 % of control; under setting [4], 105 % of control; under setting [5], 97 % of control; under setting [6], 94 % of control.

As for `CCOP(=O)(OCC)O/N=C(/C#N)c1ccccc1`, the T/C under setting [7] is 91 % of control.

Consider `CCCCC(C)O[Si](C)C1(C)CCCCC1` (stereo unspecified), for which the T/C is, setting by setting: under setting [8], 94 % of control; under setting [9], 95 % of control; under setting [10], 106 % of control.

As for `NC(CCSCc1ccc(N(CCCl)CCCl)cc1)C(=O)O` (stereo unspecified), the T/C is, setting by setting: (dose: 3.0 mg/kg/injection, schedule: Q01DX Z (ip), vehicle: saline) 123 % of control; (dose: 8.0 mg/kg/injection, schedule: Q01DX Z (ip), vehicle: saline) 113 % of control; (dose: 12.0 mg/kg/injection, schedule: Q01DX Z (ip), vehicle: saline) 113 % of control; (dose: 36.0 mg/kg/injection, schedule: Q01DX Z (ip), vehicle: saline) 114 % of control; (dose: 54.0 mg/kg/injection, schedule: Q01DX Z (ip), vehicle: saline) 103 % of control and 90 % of control; (dose: 81.0 mg/kg/injection, schedule: Q01DX Z (ip), vehicle: saline) 95 % of control. The T/C runs as follows: under setting [4], 169 % of control; under setting [5], 182 % of control; under setting [6], 113 % of control.

For the compound `CNc1ncnc(NC)c1[N+](=O)[O-]`, the T/C is, setting by setting: (dose: 100.0 mg/kg/injection, schedule: Q04DX002 (ip), vehicle: Klucel (hydroxypropylcellulose) (HPC)) 101 % of control; (dose: 200.0 mg/kg/injection, schedule: Q04DX002 (ip), vehicle: Klucel (hydroxypropylcellulose) (HPC)) 90 % of control.

With `O=[N+]([O-])c1ccc(NC(c2ccccc2)c2ccc3cccnc3c2O)cc1` (stereo unspecified), the T/C under setting [1] was 89 % of control, the T/C under setting [11] is 95 % of control and the T/C under setting [12] is 91 % of control.

`COc1ccccc1OCCOCCN(C)C1CC2CCC1(C)C2(C)C` (stereo unspecified): under setting [2], the T/C was 93 % of control.

As to `CCOC(=O)Nc1cc(Cl)c2n[nH]nc2n1`, the T/C (dose: 25.0 mg/kg/injection, schedule: Q01DX005 (ip), vehicle: saline) is 105 % of control; the T/C (dose: 50.0 mg/kg/injection, schedule: Q01DX005 (ip), vehicle: saline) was 113 % of control; the T/C under setting [13] was 110 % of control.

Consider `CC(=O)C1(C(C)=O)C(c2cccc([N+](=O)[O-])c2)C1(c1ccccc1)[N+](=O)[O-]` (stereo unspecified), for which the T/C was 95 % of control (dose: 100.0 mg/kg/injection, schedule: Q01DX001 (ip), vehicle: other); 94 % of control under setting [14]; 92 % of control (dose: 100.0 mg/kg/injection, schedule: Q04DX003 (ip), vehicle: other); 93 % of control (dose: 200.0 mg/kg/injection, schedule: Q01DX001 (ip), vehicle: other); 102 % of control under setting [15]; 92 % of control (dose: 200.0 mg/kg/injection, schedule: Q04DX003 (ip), vehicle: other). Also, the T/C by setting is: (dose: 400.0 mg/kg/injection, schedule: Q01DX001 (ip), vehicle: other) 95 % of control; (dose: 400.0 mg/kg/injection, schedule: Q01DX009 (ip), vehicle: saline with Tween-80) 96 % of control; (dose: 400.0 mg/kg/injection, schedule: Q04DX003 (ip), vehicle: other) 97 % of control.

Turning to `CCC[CH2][Sn]([CH2]C)([CH2]C)[CH2]C`, the T/C is, setting by setting: (dose: 100.0 mg/kg/injection, schedule: Q04DX002 (ip), vehicle: saline) 96 % of control; (dose: 200.0 mg/kg/injection, schedule: Q04DX002 (ip), vehicle: saline) 101 % of control.

As to `O=C1CCc2cc(Cl)ccc2O1`, the T/C under setting [3] is 103 % of control, the T/C under setting [4] was 100 % of control, the T/C under setting [5] was 103 % of control and the T/C under setting [6] is 94 % of control.

Regarding `O=C(Nc1ccccc1Cl)OCC#CCOC(=O)Nc1ccccc1Cl`, the T/C is 102 % of control under setting [8], 93 % of control under setting [9] and 91 % of control under setting [10].

Turning to `CN(C)c1ccc(/C=N/NC(=O)c2ccccc2NC(=O)c2ccc(Cl)cc2)c(Cl)c1`, the T/C under setting [16] was 95 % of control, the T/C under setting [17] is 90 % of control and the T/C under setting [18] was 90 % of control.

`O=C1NC(Cc2ccccc2)C(=O)O1` (stereo unspecified): the T/C is, setting by setting: (dose: 100.0 mg/kg/injection, schedule: Q04DX003 (ip), vehicle: saline) 100 % of control; (dose: 200.0 mg/kg/injection, schedule: Q04DX003 (ip), vehicle: saline) 91 % of control; (dose: 400.0 mg/kg/injection, schedule: Q04DX003 (ip), vehicle: saline) 93 % of control.

On to `CCCCOc1ccc(/C=N/NC(=S)Nc2ccccc2)cc1`, for which the T/C runs as follows: under setting [16], 97 % of control; under setting [17], 98 % of control; under setting [18], 95 % of control.

Consider `CC(=O)OCCN1CCN(CCOC(C)=O)CC1`, for which the T/C reads like this: under setting [1], 96 % of control; under setting [11], 102 % of control; under setting [12], 94 % of control.

For the compound `O=c1[nH]nnc2nn(C3OC(CO)C(O)C3O)cc12` (stereo unspecified), the T/C under setting [13] is 103 % of control and the T/C (dose: 200.0 mg/kg/injection, schedule: Q01DX005 (ip), vehicle: saline) was 109 % of control.

Consider `[O-]/[N+](=C\c1ccccc1)Cc1ccccc1`, for which the T/C runs as follows: (dose: 100.0 mg/kg/injection, schedule: Q04DX003 (ip), vehicle: carboxymethylcellulose (CMC)) 94 % of control; (dose: 200.0 mg/kg/injection, schedule: Q04DX003 (ip), vehicle: carboxymethylcellulose (CMC)) 97 % of control.

As for `CC(=O)Oc1ccc(OC(C)=O)c2c1C(=O)c1ccccc1C2=O`, the T/C by setting is: under setting [3], 104 % of control; under setting [4], 110 % of control; under setting [5], 102 % of control; under setting [6], 110 % of control.

Turning to `Cc1cccc(C2=N/C(=C\c3cccc4ccccc34)C(=O)O2)c1`, the T/C is, setting by setting: (dose: 50.0 mg/kg/injection, schedule: Q01DX009 (ip), vehicle: saline with Tween-80) 102 % of control; under setting [14], 91 % of control; under setting [15], 91 % of control.

With `CC(C)=NNC(=O)NO`, the T/C under setting [7] is 102 % of control.

For the compound `COc1ccccc1/C=C(\SS/C(=C/c1ccccc1OC)C(=O)O)C(=O)O`, the T/C runs as follows: under setting [1], 120 % of control; under setting [11], 91 % of control.

Take `CCOC(=O)/C(O)=C\c1nnccc1Cl`: the T/C was 96 % of control (dose: 56.25 mg/kg/injection, schedule: Q04DX002 (ip), vehicle: saline); 104 % of control (dose: 112.5 mg/kg/injection, schedule: Q04DX002 (ip), vehicle: saline); 101 % of control (dose: 225.0 mg/kg/injection, schedule: Q04DX002 (ip), vehicle: saline).

Take `CC1=COC2(CC1)OC1CC3C4CCC5CC(O)CCC5(C)C4CCC3(C)C1C2C` (stereo unspecified): the T/C under setting [19] was 96 % of control, the T/C under setting [20] is 102 % of control and the T/C under setting [21] is 95 % of control.

`O=S(=O)(Nc1ccccc1)c1ccc2c(Cl)cc(S(=O)(=O)Nc3ccccc3)cc2c1`: the T/C reads like this: under setting [19], 93 % of control; under setting [20], 93 % of control; under setting [21], 91 % of control.

Consider `CCCCCCCCCCCCCCCC(CCCC)c1ccccc1` (stereo unspecified), for which the T/C is 91 % of control (dose: 100.0 mg/kg/injection, schedule: Q01DX001 (ip), vehicle: saline + alcohol); 100 % of control (dose: 200.0 mg/kg/injection, schedule: Q01DX001 (ip), vehicle: saline + alcohol); 96 % of control (dose: 400.0 mg/kg/injection, schedule: Q01DX001 (ip), vehicle: saline + alcohol).
